Measured values reported in patent US20150250782A1, “Methods and Compositions for Hypotensive Resuscitation” (Pharmazz, Inc., priority 2012, published 2015).

What was measured:
[1] = tested on: isolated perfused rabbit heart; conditions: Bhatnagar, Pande et al. 1985; cited from earlier work
α2 adrenergic receptors = test: Centhaquin resuscitation with and without α2 adrenergic antagonists: arterial blood hematocrit, pH, gases, electrolytes, lactate; assay type: in vivo, rat; parameters: pCO2 / pO2 / Na+ / K+ / Ca++ / Lactate: unit not given beside the values
hemorrhaged rats [2] = test: Time by which MAP falls back to 35 mmHg in hemorrhaged rats, low volume resuscitation; assay type: in vivo, rat
Description: (§1) In another study, the effect of centhaquin resuscitation on the amount of norepinephrine (NE) required to maintain mean arterial pressure (MAP) and the time by which MAP falls back to 35 mmHg in hemorrhaged rats was determined. Male, adult rats were anesthetized with urethane and a pressure catheter SPR-320 was placed in the femoral artery, and a pressure-volume catheter SPR-869 was placed in the left ventricle. Hemorrhage was induced by withdrawing blood and MAP was maintained at 35 mmHg for 30 minutes followed by resuscitation.
(§2) Two sets of experiments were performed. First, the amount of NE required to maintain MAP at 70 mmHg in normal saline (NS) or centhaquin (0.05 mg/kg) treated rats (volume equal to blood loss) was determined. Second, the time by which MAP fell back to 35 mmHg in rats treated with 3% hypertonic saline (HS) or centhaquin (0.05 mg/kg) (volume one-fifth of blood loss) was determined. […] In a second set of experiments, hemorrhaged rats were resuscitated with either HS or centhaquin (one-fifth the volume of blood loss).

hemorrhaged rats [3] = test: Fixed-pressure hemorrhage model, centhaquin in hypertonic saline; assay type: in vivo, rat
Description: A sham group of rats was cannulated, but not hemorrhaged. A vehicle group received hypertonic saline. Treatment groups received centhaquin (free base) (0.006, 0.017, or 0.05 mg/kg) in hypertonic saline. The values are expressed as mean±S.E.M. with n=6 rats in each group.
FIGS. 9-12 show the effect of centhaquin on blood lactate and base deficit in hemorrhaged rats (FIG. 9); on mean arterial pressure and heart rate (FIG. 10); on cardiac output and stroke volume (FIG. 11); and on systemic vascular resistance and stroke work (FIG. 12). Like the tests of FIG. 8, a sham group of rats was cannulated but not hemorrhaged, a vehicle group received hypertonic saline, and treatment groups received free base centhaquin (0.006, 0.017, or 0.05 mg/kg) in hypertonic saline. The values are expressed as mean±S.E.M. with n=6 rats in each group. *p<0.05 compared to baseline, #p<0.05 compared to hemorrhage, Δp<0.05 compared to vehicle treated group.
FIG. 13 is a plot of fraction survival vs. time for groups of hemorrhaged rats. The sham group of rats was cannulated, but not hemorrhaged. The vehicle group received hypertonic saline, while treatment groups received centhaquin (free base) (0.006, 0.017, or 0.05 mg/kg) in hypertonic saline.
Centhaquin increased the survival time of hemorrhaged rats compared to hypertonic saline treatment. Median survival time for 50% survival rate of rats treated with hypertonic saline was 137±12 minutes, while for rats treated with centhaquin it was 375±25 minutes. Fraction survival at 250 min was 0 when resuscitated with hypertonic saline, while treatment with centhaquin improved the fraction survival to 0.8. Even at 480 min after resuscitation with centhaquin, the fraction survival was 0.2. […] The findings of the present study are novel, unexpected, and are important due to recent reports of large clinical studies showing hypertonic saline has no benefit over normal saline in patients with hypovolemic shock or severe traumatic brain injury (Bulger, May et al. 2010; Bulger, May et al. 2011).

[4] = tested on: endothelin A (ETA) receptors; test: Expression of ETA receptors in blood vessels after intravenous administration; assay type: in vivo, rat; conditions: intravenous administration in rats
[5] = tested on: right auricle of guinea pig; conditions: Srimal, Mason et al. 1990, cited from earlier work
hemorrhaged rats [6] = test: Norepinephrine required to maintain MAP at 70 mmHg in hemorrhaged rats; assay type: in vivo, rat; conditions: 0.05 mg/kg
Description: as §1, §2

[7] = tested on: release of norepinephrine; conditions: 0.1, 1.0 and 10.0 μg/ml; Bhatnagar, Pande et al. 1985; cited from earlier work
[8] = 0.05 mg/kg, one-fifth the volume of blood loss

For `Cc1cccc(N2CCN(CCc3ccc4ccccc4n3)CC2)c1` [centhaquin, 2-[2-(4-(3-methyphenyl)-1-piperazinyl)ethyl]-quinoline], the “inotropic effect, ventricular contractions” value [1] is listed as “positive inotropic effect”, the “Ca++” value (α2 adrenergic receptors; Baseline) is listed as 1.15 ± 0.02 and the Hematocrit (α2 adrenergic receptors; Baseline) is listed as 54.67 ± 2.03. The “K+” value (α2 adrenergic receptors; Baseline) was 2.73 ± 1.07, the Lactate (α2 adrenergic receptors; Baseline) was 3.17 ± 0.24 and the “Na+” value (α2 adrenergic receptors; Baseline) was 134.33 ± 0.88. The pCO2 (α2 adrenergic receptors; Baseline) was 46.33 ± 1.67, the pH (α2 adrenergic receptors; Baseline) was 7.34 ± 0.01 and the pO2 (α2 adrenergic receptors; Baseline) was 118.33 ± 6.77. The “Ca++” value (α2 adrenergic receptors; Hemorrhage) was 1.22 ± 0.00, the Hematocrit (α2 adrenergic receptors; Hemorrhage) was 37.67 ± 2.33 and the “K+” value (α2 adrenergic receptors; Hemorrhage) was 5.73 ± 0.30. For the same compound, the Lactate (α2 adrenergic receptors; Hemorrhage) was 10.10 ± 0.70, the “Na+” value (α2 adrenergic receptors; Hemorrhage) was 124.33 ± 1.86 and the pCO2 (α2 adrenergic receptors; Hemorrhage) was 27.33 ± 1.20. For the same compound, the pH (α2 adrenergic receptors; Hemorrhage) was 7.24 ± 0.02, the pO2 (α2 adrenergic receptors; Hemorrhage) was 124.00 ± 4.73 and the “Ca++” value (α2 adrenergic receptors; Resuscitation 30 min) was 1.17 ± 0.02. The Hematocrit (α2 adrenergic receptors; Resuscitation 30 min) was 33.00 ± 1.53, the “K+” value (α2 adrenergic receptors; Resuscitation 30 min) was 4.73 ± 0.09 and the Lactate (α2 adrenergic receptors; Resuscitation 30 min) was 5.80 ± 0.32. The “Na+” value (α2 adrenergic receptors; Resuscitation 30 min) was 130.00 ± 0.08, the pCO2 (α2 adrenergic receptors; Resuscitation 30 min) was 33.00 ± 0.58 and the pH (α2 adrenergic receptors; Resuscitation 30 min) was 7.29 ± 0.01. The pO2 (α2 adrenergic receptors; Resuscitation 30 min) was 124.00 ± 4.51, the “Ca++” value (α2 adrenergic receptors; Resuscitation 60 min) was 1.18 ± 0.03 and the Hematocrit (α2 adrenergic receptors; Resuscitation 60 min) was 32.67 ± 1.76. The “K+” value (α2 adrenergic receptors; Resuscitation 60 min) was 4.60 ± 0.00, the Lactate (α2 adrenergic receptors; Resuscitation 60 min) was 4.53 ± 0.38 and the “Na+” value (α2 adrenergic receptors; Resuscitation 60 min) was 128.00 ± 1.00. For the same compound, the pCO2 (α2 adrenergic receptors; Resuscitation 60 min) was 33.33 ± 0.33, the pH (α2 adrenergic receptors; Resuscitation 60 min) was 7.31 ± 0.01 and the pO2 (α2 adrenergic receptors; Resuscitation 60 min) was 121.67 ± 4.63. For the same compound, the “Ca++” value (α2 adrenergic receptors; Resuscitation 120 min) was 1.18 ± 0.01, the Hematocrit (α2 adrenergic receptors; Resuscitation 120 min) was 33.67 ± 2.03 and the “K+” value (α2 adrenergic receptors; Resuscitation 120 min) was 5.17 ± 0.15. The Lactate (α2 adrenergic receptors; Resuscitation 120 min) was 5.67 ± 0.22, the “Na+” value (α2 adrenergic receptors; Resuscitation 120 min) was 130.33 ± 0.33 and the pCO2 (α2 adrenergic receptors; Resuscitation 120 min) was 29.00 ± 1.15. The pH (α2 adrenergic receptors; Resuscitation 120 min) was 7.28 ± 0.01, the pO2 (α2 adrenergic receptors; Resuscitation 120 min) was 132.00 ± 6.69 and the “blood lactate lower compared to hypertonic saline” value (hemorrhaged rats [2]; [8]) was 44%. For the same compound, the “time by which MAP fell back to 35 mmHg” value (hemorrhaged rats [2]; [8]) was 148 ± 15 min, the “survival after blood transfusion” value (hemorrhaged rats [2]; blood transfusion one-fifth the volume of blood loss after MAP fell to 35 mmHg) was 788 min and the “survival time compared to other groups” value (hemorrhaged rats [3]; 0.017 mg/kg) was “maximal survival time”. For the same compound, the Fraction survival (hemorrhaged rats [3]; at 250 min) was 0.8, the Fraction survival (hemorrhaged rats [3]; at 480 min after resuscitation) was 0.2 and the “Median survival time for 50% survival rate” value (hemorrhaged rats [3]; centhaquin in hypertonic saline) was 375 ± 25 min. The “expression of endothelin A (ETA) receptors in the blood vessels” value [4] was “increase the expression”, the “effect on positive inotropic effect of norepinephrine” value [5] was “significantly potentiated” and the “spontaneous contraction of the right auricle” value ([5]; up to a concentration of 2 μg/ml) was “not affected”. For the same compound, the Blood lactate (hemorrhaged rats [6]; 60 min following resuscitation, volume equal to blood loss) was 1.65 ± 0.23 mmol/L, the “amount of NE needed in each rat to maintain MAP at 70 mmHg” value (hemorrhaged rats [6]; first 60 min of resuscitation) was 17.5 µg and the “norepinephrine release evoked by potassium chloride and dimethyl phenyl piperazinium chloride” value [7] was “inhibited”. The “spontaneous release of norepinephrine” value [7] was “initial increase, followed by a decrease”.
